Test results published in publication PMC3556730 (Neuropharmacology, 2011).
Read-outs that look alike come from different tables or passages of the source.

What was measured:
[1] = biological target: 5-HT2AR (Mus musculus, UniProt P35363); test: [3H]Ketanserin competition binding, mouse striatum membranes
[2] = biological target: T1, 5-HT2AR (Homo sapiens, UniProt P28223); details: HEK-5HT2AR
[3] = biological target: T1, 5-HT2AR
[4] = biological target: T1, 5-HT2AR; details: HEK-5HT2AR; vehicle; mean ± SEM
[5] = biological target: T1, 5-HT2AR; details: for Emax (inositol phosphate production): HEK-5HT2AR-D2R, mean ± SEM; for Effect on 5-HT-induced 5-HT2AR-IP3 production / Effect on DOI-induced 5-HT2AR-IP3 production: co-expressing cells, D2R agonist 10^−5 M
[6] = tested on: MK-801-induced locomotor activity; test: MK-801-induced locomotor activity in wild-type and 5-HT2AR-KO mice; type: in vivo; details: MK-801 0.5 mg/kg i.p.; wild-type and 5-HT2AR-KO mice (similar)
[7] = mouse striatum, with quinpirole (10^−5 M)

T1 sequence (P28223 whole entry): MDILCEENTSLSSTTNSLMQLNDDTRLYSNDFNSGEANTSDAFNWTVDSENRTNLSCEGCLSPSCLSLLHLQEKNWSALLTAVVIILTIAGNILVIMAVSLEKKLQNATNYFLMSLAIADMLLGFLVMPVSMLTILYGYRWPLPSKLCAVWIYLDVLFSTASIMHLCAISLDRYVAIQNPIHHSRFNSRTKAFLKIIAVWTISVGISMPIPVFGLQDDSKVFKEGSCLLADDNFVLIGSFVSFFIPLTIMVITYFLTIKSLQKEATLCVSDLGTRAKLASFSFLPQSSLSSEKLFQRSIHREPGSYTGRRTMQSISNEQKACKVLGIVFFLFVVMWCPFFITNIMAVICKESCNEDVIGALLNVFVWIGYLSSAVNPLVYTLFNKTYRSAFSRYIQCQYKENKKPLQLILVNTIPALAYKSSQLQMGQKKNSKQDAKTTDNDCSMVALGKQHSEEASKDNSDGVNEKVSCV
Chain of 5-HT2AR (Mus musculus, UniProt P35363) (P35363 whole entry): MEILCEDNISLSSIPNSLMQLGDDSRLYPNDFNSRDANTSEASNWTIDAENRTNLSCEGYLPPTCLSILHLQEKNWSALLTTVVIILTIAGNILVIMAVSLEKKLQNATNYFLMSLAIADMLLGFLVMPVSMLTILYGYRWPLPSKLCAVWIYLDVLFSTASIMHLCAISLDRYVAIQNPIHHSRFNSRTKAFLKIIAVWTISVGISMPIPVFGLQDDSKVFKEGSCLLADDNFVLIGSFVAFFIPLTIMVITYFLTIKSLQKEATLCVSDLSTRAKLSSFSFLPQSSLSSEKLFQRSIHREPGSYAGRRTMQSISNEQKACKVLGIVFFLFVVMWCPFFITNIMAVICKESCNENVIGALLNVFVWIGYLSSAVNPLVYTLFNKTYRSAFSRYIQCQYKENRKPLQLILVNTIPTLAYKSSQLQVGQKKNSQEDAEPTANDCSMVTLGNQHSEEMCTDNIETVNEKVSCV

COc1cc(CC(C)N)c(OC)cc1I (racemic) [DOI, (+/−)-2,5-dimethoxy-4-iodoamphetamine]
Ki ([1]; Fig. 1C single experiment, control, one-site model): 95 nM | Ki ([1]; Fig. 1D single experiment, control, one-site model): 3300 nM | % High (percentage of high-affinity binding sites) [1, 7]: 44 ± 2% | Ki ([1]; read-out: Ki-high, mouse striatum, with quinpirole (10^−5 M), two-site model, mean ± SEM): 0.065 nM | Ki ([1]; read-out: Ki-low, mouse striatum, vehicle, one-site model, mean ± SEM): 250 nM | Ki ([1]; read-out: Ki-low, mouse striatum, with quinpirole (10^−5 M) + raclopride (10^−6 M), one-site model, mean ± SEM): 690 nM | Ki ([1]; read-out: Ki-low, mouse striatum, with quinpirole (10^−5 M), two-site model, mean ± SEM): 510 nM | Ki ([1]; read-out: Ki-low, mouse striatum, with raclopride (10^−6 M), one-site model, mean ± SEM): 660 nM | % High (percentage of high-affinity binding sites) ([2]; vehicle): 41 ± 5% | % High (percentage of high-affinity binding sites) ([2]; with quinpirole (10^−5 M)): 48% | % High (percentage of high-affinity binding sites) ([3]; HEK-5HT2AR-D2R, with quinpirole (10^−5 M)): 46 ± 3%

NCCc1c[nH]c2ccc(O)cc12 [5-HT, serotonin]
Emax (inositol phosphate production) [4]: 647 ± 74 cpm | Emax (inositol phosphate production) ([5]; vehicle): 608 ± 12 cpm | Emax (inositol phosphate production) ([5]; with quinpirole (10^−5 M)): 589 ± 22 cpm | Emax (inositol phosphate production) ([5]; with ropinirole (10^−5 M)): 564 ± 47 cpm

C[C@]12N[C@H](Cc3ccccc31)c1ccccc12 [MK-801, dizocilpine]
Locomotor activity [6]: increased locomotor activity

CCCN1CCC[C@@H]2Cc3n[nH]cc3C[C@H]21 [quinpirole]
Effect on affinity of DOI for 5-HT2AR ([1]; mouse striatum, modulator 10^−5 M): significantly higher | Effect on 5-HT-induced 5-HT2AR-IP3 production [5]: have no effect | Effect on DOI-induced 5-HT2AR-IP3 production [5]: decrease | Effect on affinity of DOI for 5-HT2AR ([3]; HEK293 co-expressing 5-HT2AR and D2R, modulator 10^−5 M): marked increase

CCN1CCC[C@H]1CNC(=O)c1c(O)c(Cl)cc(Cl)c1OC [raclopride]
Effect on quinpirole-enhanced DOI affinity for 5-HT2AR [1, 7]: prevents the enhanced effect

CCCN(CCC)CCc1cccc2c1CC(=O)N2 [ropinirole]
Effect on 5-HT-induced 5-HT2AR-IP3 production [5]: have no effect | Effect on DOI-induced 5-HT2AR-IP3 production [5]: decrease
